# In publication PMC10487843, “Evaluation of Anticancer and Anti-Inflammatory Activities of Some Synthetic Rearranged Abietanes” (International Journal of Molecular Sciences, 2023):
# Where two headings read alike, the source gives them in different places.
# Tests used:
# [1] = test system: human hepatocarcinoma (HepG2); assay: MTT cell viability assay, HepG2; format: cell-based; settings: for IC80: 80% growth inhibition
# Text: (§1) In this study, we employed the MTT (3-(4,5-dimethyl thiazol-2-yl)-2,5-diphenyltetrazolium bromide) colorimetric assay to evaluate the cytotoxic activity of selected abietanes (compounds 5, 7, 13, 17, and 19) against three tumor cell lines: human colon adenocarcinoma (HT29), human hepatocarcinoma (HepG2), and murine melanoma (B16–F10). The MTT assay relied on the conversion of MTT to formazan by viable cells, with the formazan concentration proportional to the number of viable cells. The concentrations required for 50 and 80% growth inhibition (IC50 and IC80) were determined for each compound.
# (§2) The human colorectal adenocarcinoma cell line HT29 (ECACC no. 9172201; ATCC no. HTB-38), the human hepatocarcinoma cell line HepG2 (ECACC no. 85011430), the mouse melanoma cells B16–F10 (ATCC no. CRL-6475), and the murine monocyte/macrophage like RAW 264.7 cell line (ATCC no, TIB-71) were obtained from the cell bank of the University of Granada, Spain. The tumor cell lines were cultured in DMEM (Dulbecco’s modified Eagle’s medium) supplemented with 2 mM glutamine, 10% heat-inactivated FCS (fetal calf serum), and 50 μg/mL of gentamicin (for all cancer cell lines). The RAW 264.7 cell line was cultured in RPMI1640 medium, supplemented with 2 mM glutamine, 10% heat-inactivated FCS, and 50 μg/mL of gentamicin. All cell lines were incubated at 37 °C, in an atmosphere of 5% CO2 and 95% humidity. The culture media were changed every 48 h, and the confluent cultures were separated with a trypsin solution (0.25% EDTA). In all experiments, monolayer cells were grown to 80–90% confluence in sterile cell culture flasks.
# (§3) The effects of the compounds on the cell viability were established using the MTT method (Sigma, St. Louis, MO, USA). The cytotoxicity of the compounds was assessed by measuring the absorbance of MTT dye staining of metabolically competent cells. The cells were cultivated in 96-well plates at 6.0 × 10^3 cells/mL for the HT29 and RAW 264.7 cell lines, at 5.0 × 10^3 cells/mL for B16–F10 cells, and 15.0 × 10^3 cells/mL for the HepG2 cell line, with a final volume of 200 μL per well being incubated with the different products (0–100 μg/mL). After 72 h, 100 μL of MTT solution (0.5 mg/mL) in 50% of PBS and 50% of the medium was added to each well. Following incubation for 1.5 h, formazan was resuspended in 100 μL of DMSO, and each concentration was tested in triplicate. The cell viability relative to the untreated control cells was determined by measuring the absorbance at 570 nm using an ELISA plate reader (Tecan Sunrise MR20–301, TECAN, Grödig, Austria).
# [2] = test system: human colon adenocarcinoma (HT29); assay: MTT cell viability assay, HT29; format: cell-based; settings: for IC80: 80% growth inhibition
# Text: as §1, §2, §3
# HT29 cells = assay: Mitochondrial membrane potential by flow cytometry (Rh123/DHR); format: cell-based, human; settings: HT29, 72 h
# Text: Apoptotic effects induced by anticancer agents can be mediated through two major pathways: intrinsic and extrinsic apoptotic pathways. The intrinsic pathway involves the disruption of the mitochondrial membrane and changes in the mitochondrial membrane potential (MMP), while the extrinsic pathway leads to apoptosis without initial MMP alterations. […] Further investigations are necessary to elucidate the detailed molecular mechanisms underlying their apoptotic effect.
# We analyzed the electrochemical gradient across the mitochondrial membrane via analytical flow cytometry, using dihydrorhodamine (DHR). A total of 5 × 10^4 HT29 cells were plated in 24-well plates for this assay. […] Next, the medium was replaced by adding fresh solution with DHR to a final concentration of 5 μg/mL. The cells were incubated at 37 °C for 1 h, washed, and resuspended in PBS with 5 μg/mL of PI. The fluorescence intensity was measured using a FACScan flow cytometer (fluorescence-activated cell sorter). The experiments were performed two times, each with three replications per assay.
# [3] = test system: HT29, HepG2 and B16–F10 cell lines; assay: MTT cell viability assay, span over all three tumor cell lines; format: cell-based; settings: 72 h
# Text: as §1
# The human colorectal adenocarcinoma cell line HT29 (ECACC no. 9172201; ATCC no. HTB-38), the human hepatocarcinoma cell line HepG2 (ECACC no. 85011430), the mouse melanoma cells B16–F10 (ATCC no. CRL-6475), and the murine monocyte/macrophage like RAW 264.7 cell line (ATCC no, TIB-71) were obtained from the cell bank of the University of Granada, Spain. […]
# The effects of the compounds on the cell viability were established using the MTT method (Sigma, St. Louis, MO, USA). The cytotoxicity of the compounds was assessed by measuring the absorbance of MTT dye staining of metabolically competent cells. […] The cell viability relative to the untreated control cells was determined by measuring the absorbance at 570 nm using an ELISA plate reader (Tecan Sunrise MR20–301, TECAN, Grödig, Austria).
# [4] = Homo sapiens, HepG2, 72 h, read-out: IC50
# [5] = Homo sapiens, HT-29, 72 h, read-out: IC50
"IC50 ([1]; 72 h, listed as Pygmaeocin B (5))","IC50 [1, 4]","IC50 [2, 5]","IC50 ([3]; read-out: IC50 values, range in all three cell lines)","IC50 ([2]; 72 h, listed as Precursor (13))",Structure (SMILES),"IC80 ([1]; Homo sapiens, 72 h)","IC80 ([2]; Homo sapiens, HT-29, 72 h)",decrease in positive Rh123-stained cells with regard to untreated control (HT29 cells; IC50 concentration),decrease in positive Rh123-stained cells with regard to untreated control (HT29 cells; IC80 concentration),"IC80 ([3]; read-out: IC80 values, range in all three cell lines)"
8.99 ± 1.12 µg/mL,8.98 µg/mL,6.69 ± 1.18 µg/mL,–,–,"CC(C)C1=CC2=C(C(=O)C1=O)C1=CC(=O)CC(C)(C)[C@@]1(C)C=C2 [Compound 5, Pygmaeocin B]",11.4 ± 1.08 µg/mL,9.73 ± 1.18 µg/mL,54%,61%,–
–,5.58 ± 0.93 µg/mL,2.7 ± 0.8 µg/mL,2.67 to 5.58 µg/mL,2.67 ± 0.82 µg/mL,CC(C)C1=CC2=C(C(=O)C1=O)[C@@]1(C)CCCC(C)(C)[C@@H]1CC2 [Compound 13],7.67 ± 0.8 µg/mL,5.19 ± 0.68 µg/mL,around 40%,57%,5.19 to 7.67 µg/mL
